Source: patent publication US20100069340A1, “PHARMACEUTICAL COMPOSITIONS OF AN SRC KINASE INHIBITOR AND AN AROMATASE INHIBITOR” (Wyeth, priority 2008, published 2010)
Where two headings read alike, the source gives them in different places.

What was measured:
Type in all cases: cell-based
BT-20 (ER neg) = assay: Cell proliferation assay (CellTiter Glo), BT-20; conditions: for IC50: Homo sapiens, BT-20, 168 h, 7 Day assay, charcoal stripped serum, no phenol red, plateau cell number at 5 μM used
Procedure: (§1) Cell lines were obtained from ATCC. Estrogen was obtained from SIGMA, 4-hydroxytamoxifen was obtained from SIGMA, Bosutinib was used for these studies. Charcoal-stripped serum and phenol red-free medium was obtained from Invitrogen. CellTiter Glo was obtained from Promega.
(§2) Cell cultures. Proliferation assays with cells in complete fetal calf serum were performed with medium containing phenol red. For all assays examining estrogen-dependence, cells were cultured in phenol red-free medium; DMEM/F12 (MCF7), RPMI1640 (MDA-MB-361, T47D) MEM (BT20, MDA-MB-231) McCoys5A modified (SKBR3), Leibowitz' L15 medium supplemented with 10 ng/mL insulin (MDA-MB-435 and MDA-MB-468) with 10% fetal bovine serum supplemented with glutamine and gentamicin. For proliferation assays, trypsinized cells were subjected to three cycles of centrifugation and resuspension in phenol red-free medium supplemented with charcoal stripped medium (5% final), glutamine and Pen/Strep. Cells were plated on day 0, with or without estrogen (10 nM final concentration). On day 1, 4-hydroxytamoxifen and SKI-606 or DMSO were added as a serial dilution. Cells were incubated for 7 days, after which CellTiter Glo (Promega) was added as recommended by the manufacturer. After mixing and two hours incubation on the bench, plates were read on an Envision reader. […] The 10 uM data point was dropped for these two lines since there was a clear plateau prior to the sharp drop in luminescence observed at 10 uM compound. The IC50 was calculated using a floating minima corresponding to the lowest luminescence value at 5 uM.
(§3) Cell proliferation assays were performed in two formats; a three day proliferation assay in fully supplemented medium with phenol red, and a 7 day proliferation assay in phenol red free medium supplemented with charcoal-stripped medium. […] ER positive T47D cells were slightly more sensitive to SKI-606 in the presence of estrogen. BT20 cells were equally sensitive to SKI-606 in stripped serum medium, regardless of whether estrogen was present. […]

MDA-MB-231 (ER neg) = assay: Cell proliferation assay (CellTiter Glo), MDA-MB-231; conditions: Homo sapiens
Procedure: as §1, §2, §3

MDA-MB-361 = assay: Cell proliferation assay (CellTiter Glo), MDA-MB-361; conditions: for IC50: Homo sapiens
Procedure: as §1, §2
(§4) Cell proliferation assays were performed in two formats; a three day proliferation assay in fully supplemented medium with phenol red, and a 7 day proliferation assay in phenol red free medium supplemented with charcoal-stripped medium. […] ER positive T47D cells were slightly more sensitive to SKI-606 in the presence of estrogen. BT20 cells were equally sensitive to SKI-606 in stripped serum medium, regardless of whether estrogen was present.
(§5) Proliferation data for SKI-606 in various breast tumor lines in complete medium (10% FCS) and charcoal stripped serum with no phenol red (no E2, E2) with and without 10 nM estrogen. The complete medium data were obtained in 3-day assays, while stripped serum assays were extended for 7 days with one change of medium at day 5. The IC50 values for the BT20 line was calculated using the “plateau” cell number evident at 5 μM SKI-606.

MCF7 = assay: Cell proliferation assay (CellTiter Glo), MCF7; conditions: for IC50: Homo sapiens
Procedure: as §1, §2, §4, §5

ER = ER signaling in MCF-7 cells (ERE-tk-luciferase, ERα levels)
Procedure: Radis Procedure 2484, MCF-7 model was used for the measurement of in vitro estrogenic activity. MCF-7 cells were passaged twice a week in D-MEM/F-12 medium containing 10% (v/v) heat-inactivated fetal bovine serum, 1% (v/v) Penicillin-Streptomycin, and 2 mM glutaMax-1. The cells were plated with growth medium at 25,000/well into 96 well plates and incubated at 37° C. overnight.
The cells were infected for 2 hr at 37° C. with 50 μl/well of a 1:10 dilution of adenovirus 5-ERE-tk-luciferase in phenol red-free D-MEM/F-12 medium containing 10% (v/v) heat-inactived charcoal-stripped fetal bovine serum, 1% (v/v) Penicillin-Streptomycin, 2 mM glutaMax-1, 1 mM sodium pyruvate. The wells are then washed once with 150 μl of experimental medium. Finally, the cells are treated for 24 hr at 37° C. in replicates of 8 wells/treatment with 150 μl/well of vehicle (<0.1% v/v DMSO) or compound that is diluted >1000-fold into experimental medium. SKI-606 was tested in a dose response assay in the presence of 0.1 nM 17β-estradiol to stimulate ERE-luc.
After treatment, the cells are lysed on a shaker for 15 min with 25 μl/well of 1× cell culture lysis reagent (Promega Corporation). The cell lysates (20 μl) were transferred to a 96 well luminometer plate, and luciferase activity were measured in a MicroLumat LB 96 P luminometer (EG & G Berthold) using 100 μl/well of luciferase substrate (Promega Corporation). […]

For `COc1cc(Nc2c(C#N)cnc3cc(OCCCN4CCN(C)CC4)c(OC)cc23)c(Cl)cc1Cl` [bosutinib], the “toxicity at maximal concentration” value (BT-20 (ER neg); 10 uM SKI-606, BT20 cells) was “some toxicity was seen”, the IC50 (BT-20 (ER neg); 10 nM estrogen, read-out: IC50 (uM) E2) was 0.24 µM and the IC50 (BT-20 (ER neg); without estrogen, read-out: IC50 (uM) no E2) was 0.28 µM. For the same compound, the IC50 (MDA-MB-231 (ER neg); MDA-MB-231, 72 h, 3 Day assay, complete medium (10% FCS), read-out: IC50 (uM) 10% FCS) was 4.3 µM, the IC50 (MDA-MB-231 (ER neg); MDA-MB-231, 168 h, 7 Day assay, charcoal stripped serum, no phenol red, 10 nM estrogen, read-out: IC50 (uM) E2) was 5.05 µM and the IC50 (MDA-MB-231 (ER neg); MDA-MB-231, 168 h, 7 Day assay, charcoal stripped serum, no phenol red, without estrogen, read-out: IC50 (uM) no E2) was 5.1 µM. For the same compound, the “toxicity at maximal concentration” value (MDA-MB-361; 10 uM SKI-606, MDA-MB-361 cells) was “some toxicity was seen”, the IC50 (MDA-MB-361; MDA-MB-361, 72 h, 3 Day assay, complete medium (10% FCS), read-out: IC50 (uM) 10% FCS) was 2.5 µM and the IC50 (MDA-MB-361; MDA-MB-361, 168 h, 7 Day assay, charcoal stripped serum, no phenol red, 10 nM estrogen, read-out: IC50 (uM) E2) was 0.38 µM. The IC50 (MDA-MB-361; MDA-MB-361, 168 h, 7 Day assay, charcoal stripped serum, no phenol red, without estrogen, read-out: IC50 (uM) no E2) was 0.74 µM, the “effect on estrogen-dependent and estrogen-independent growth” value (MDA-MB-361; MDA-MB-361) was “inhibited estrogen-dependent and estrogen-independent growth” and the IC50 (MCF7; MCF7, 72 h, 3 Day assay, complete medium (10% FCS), read-out: IC50 (uM) 10% FCS) was 6.5 µM. The IC50 (MCF7; MCF7, 168 h, 7 Day assay, charcoal stripped serum, no phenol red, 10 nM estrogen, read-out: IC50 (uM) E2) was 0.86 µM, the IC50 (MCF7; MCF7, 168 h, 7 Day assay, charcoal stripped serum, no phenol red, without estrogen, cells did not grow well, data less reliable, read-out: IC50 (uM) no E2) was 0.08 µM and the “effect on estrogen-dependent and estrogen-independent growth” value (MCF7; MCF7) was “inhibited estrogen-dependent and estrogen-independent growth”. For the same compound, the “genomic and non-genomic signaling by ER” value (ER) was “inhibits both genomic and non-genomic signaling by ER”.
